Legend:
[1] = tested on: dry eye induced in New Zealand white rabbits; experiment: Tear breakup time (TBUT) in rabbit dry eye model (lacrimal gland inflammation); type: in vivo
Procedure: The ability of low doses of rimexolone to alleviate dry eye conditions was evaluated. […] The experimental procedures are described below. Dry eye was induced in New Zealand white rabbits (approximately 2 kg) by eliciting bilateral inflammation of the lacrimal glands. Tear function was assessed by measuring tear breakup time (“TBUT”) daily for three days, following the induction of dry eye. TBUT was determined by instilling […] into the cul de sac and manually blinking the lids to distribute the fluorescein within the tear film. Under slit lamp observation, the eye was held open and the time to tear film breakup recorded. Efficacy was determined by comparing TBUT relative to pre-inflammation baseline values in drug and vehicle treated animals. In a separate group of animals, susceptibility to desiccation-induced corneal injury was assessed following the induction of lacrimal gland inflammation. Desiccation was initiated by placing the rabbits in a low humidity environment continuously for up to three days. Corneal injury was assessed by determining the uptake of the vital dye, methylene blue. Under general anesthesia, the ocular surface was bathed in a 1% solution of methylene blue for five minutes and then washed. The animals were euthanized, eyes were excised and an 8 mm-diameter section of cornea was isolated and extracted overnight. The concentration of extracted dye was determined spectrophotometrically ([…]). Protection of the cornea is indicated by a lesser uptake of dye in drug treated animals relative to that in vehicle treated rabbits. For both TBUT and corneal injury determinations, dosing (QID) was initiated 24-hours prior to inducing inflammation and was continued for the duration of the study. A second dose-response study was conducted using the procedures described in Example 2 above.

[2] = tested on: dry eye in patients with autoimmune connective tissue disease; conditions: human patients; suspensions 0.005%, 0.05% and 0.1%; one drop each eye four times per day for six weeks
Source text: Three different suspensions, containing rimexolone at concentrations of 0.005%, 0.05% and 0.1%, respectively, were utilized in the study. A fourth formulation, which was identical to the three rimexolone suspensions except for the elimination of rimexolone, was utilized as a control (i.e., placebo).
The patients in each group administered one drop of the respective formulations to each eye four times per day for six weeks. Following the end of the six week drug administration period, the patients' symptoms were evaluated.

[3] = tested on: desiccation-induced corneal injury in rabbits; experiment: Desiccation-induced corneal injury (methylene blue uptake) after lacrimal gland inflammation; type: in vivo, New Zealand white rabbits; conditions: rabbit
Procedure: The ability of low doses of rimexolone to alleviate dry eye conditions was evaluated. […] The experimental procedures are described below. In a separate group of animals, susceptibility to desiccation-induced corneal injury was assessed following the induction of lacrimal gland inflammation. Desiccation was initiated by placing the rabbits in a low humidity environment continuously for up to three days. Corneal injury was assessed by determining the uptake of the vital dye, methylene blue. Under general anesthesia, the ocular surface was bathed in a 1% solution of methylene blue for five minutes and then washed. The animals were euthanized, eyes were excised and an 8 mm-diameter section of cornea was isolated and extracted overnight. The concentration of extracted dye was determined spectrophotometrically ([…]). Protection of the cornea is indicated by a lesser uptake of dye in drug treated animals relative to that in vehicle treated rabbits. For both TBUT and corneal injury determinations, dosing (QID) was initiated 24-hours prior to inducing inflammation and was continued for the duration of the study. A second dose-response study was conducted using the procedures described in Example 2 above.

[4] = Example 2, tested 0.005%, 0.01%, 0.05 and 0.1%
[5] = Example 3 (second dose-response study)

CCC(=O)[C@@]1(C)[C@H](C)C[C@H]2[C@@H]3CCC4=CC(=O)C=C[C@]4(C)[C@H]3[C@@H](O)C[C@@]21C [rimexolone]
TBUT expressed as percent of baseline on day three ([1]; Example 2, rimexolone 0.1% suspension, QID, FIG. 1): 66 % of baseline | maximally effective concentration for restoration of TBUT [1, 4]: 0.1% | maximally effective concentration for restoration of TBUT [1, 5]: 0.1% | TBUT restored, percent of baseline on day three ([1]; Example 3 (second dose-response study), rimexolone 0.1%, FIG. 3): 71 % of baseline | dry eye symptoms (discomfort) versus vehicle/placebo [2]: less dry eye symptoms | increases in intraocular pressure [2]: did not exhibit any clinically relevant increases in intraocular pressure | inhibition of desiccation-induced corneal injury (peak efficacy) ([3]; Example 2, rimexolone 0.1% suspension, QID, FIG. 2): 74 % inhibition | maximally effective concentration for prevention of desiccation-induced corneal staining [3, 4]: 0.1% | maximally effective concentration for prevention of desiccation-induced corneal staining [3, 5]: 0.1% | inhibition of corneal staining ([3]; Example 3 (second dose-response study), rimexolone 0.1%, FIG. 4): 77%
